Laboratory results published in US7102000B2, “Heterocyclic amide derivatives for the treatment of diabetes and other diseases” (Incyte San Diego Inc., priority 2002, dated 2006).
Counter-ions that a name gives are not always drawn.

Legend:
[1] = test system: KKA^y mice; assay: Oral treatment of type 2 diabetes in KKA^y mice (serum glucose, triglyceride, cholesterol); format: in vivo, mouse
Text: The procedure for this in-vivo assay for anti-diabetes activity was described in detail by Iwatsuka, et al. (1970 General Survey of Diabetic Features of Yellow KK Mice. Endocrinol. Japon. 17: 23–35, incorporated herein in its entirety by reference).
Experimental Procedures: Six to eight week-old male KKA^y mice (obtained from Jackson Labs of Bar Harbord, Me.) were housed in a fixed 12–12-hr artificial light-dark cycle, and maintained on a standard rodent diet provided ad libitum. Animals were allowed two days to acclimate in this experimental environment prior to the initiation of the study.
Prior to initiation of treatment with the compounds of the invention, the animals were bled from the tail vein (100–200 μL of whole blood) and serum levels of glucose and triglycerides were measured in duplicate (Trinder kits; Sigma, St. Louis, Mo.). Based on these initial measures, animals were sorted into groups with approximately the same average serum glucose levels. Once sorted, the animals were housed one per cage and provided rodent diet ad libitum. Unless otherwise indicated, compounds were suspended in sesame oil, and administered by oral gavage once daily to animals in a volume of 3 ml/kg/dose.
Treatment Group A (n=5/group): (See Results in FIG. 2a) • 1) KKA^y vehicle control (sesame oil) • 2) Compound 1 (3 mg/kg) • 3) Compound 1 (10 mg/kg) • 4) Compound 2 (3 mg/kg) • 5) Compound 2 (10 mg/kg)
Treatment Group B (n=6/group): (See Results in FIG. 2b) • 1) KKA^y vehicle control (sesame oil) • 2) Compound 11 (15 mg/kg)
Treatment Group C (n=6/group): (See Results in FIG. 2c) • 1) KKA^y vehicle control (sesame oil) • 2) Compound 13 (15 mg/kg)
Treatment Group D (n=6/group): (See Results in FIG. 2d) • 1) KKA^y vehicle control (CMC) • 2) Compound 25 (3 mg/kg, CMC) Compound 25 was suspended in a solution of carboxymethyl cellulose (CMC; 1% carboxy methyl cellulose in H2O, with 10% polyethelene glycol 400), and administered to animals in a volume of 5 ml/kg/dose.
Treatment Group E (n=5/group): (See Results in FIG. 2e) • 1) KKA^y vehicle control (10% HPβCD) • 2) Compound 25 (1 mg/kg) • 3) Compound 25 (3 mg/kg) • 4) Compound 25 (10 mg/kg) Compound 25 was dissolved in a 10% hydroxy propyl beta cyclodextrin solution, and administered to animals in a volume of 10 ml/kg/dose.
Serum glucose, triglyceride and/or cholesterol levels were measured in duplicate. The blood is kept at room temperature to allow coagulation, after which the serum is separated and assayed for glucose, triglyceride and/or cholesterol levels. As shown in FIGS. 2a–2d all of the compounds tested reduced serum glucose and triglyceride levels, some with doses as low as 3 mg/kg when administered once a day.

[2] = test system: carcinogen induced mammary tumors; assay: Progression of carcinogen induced mammary tumors in Sprague Dawley rats; format: in vivo, rat; conditions: oral once daily for four weeks; for growth / progression of mammary (breast cancer) tumors: vs vehicle treated controls; for growth / progression of mammary (breast cancer) tumors / regression of tumors / number of static tumors: FIG. 6; for number of static tumors: compared to control animals
Protocol: Procedure: Five week-old female Sprague Dawley rats (Harlan) were housed in a fixed 12–12-hr artificial light-dark cycle, and maintained on a standard rodent diet provided ad libitum. Animals were allowed two days to acclimate in this experimental environment prior to the initiation of the study.
To induce mammary tumors, the female […] were injected intraperitoneally with the carcinogen n-nitroso-n-methylurea, in a single dose of 50 mg/kg in acidified normal saline (pH 4 w/acetic acid) at a final volume of 10 mg/ml (5 ml/kg). After eight weeks, mammary tumors are detected, and the tumor bearing females are sorted into treatment groups. Once sorted, the animals were housed four per cage and provided rodent diet ad libitum. All animals are treated with compound 1 or a vehicle for four weeks, during which time changes in tumor size are monitored. Tumors were classified as regressing, static or progressing.
Treatment groups (n=8/group): • 1) Control (sesame oil) • 2) Compound 6 (20 mg/kg) • 3) Compound 11 (100 mg/kg) • 4) Compound 13 (50 mg/kg) • 5) Compound 24 (50 mg/kg) • 6) Compound 25 (20 mg/kg) • 7) Compound 25 (100 mg/kg)
All of the compounds tested were suspended in sesame oil, and administered to animals in a volume of 3 ml/kg/dose, except compound 25 which was dissolved in a 10% hydroxy propyl beta cyclodextrin solution, and administered to animals in a volume of 10 ml/kg/dose. All treatments were administered by oral gavage once daily for four weeks.
To monitor the effect of the tested compound, animals were examined for mammary tumors once every week. Tumors were classified into one of three categories, progressing, static or regressing.

[3] = test system: diet-induced hypercholesterolemic Sprague Dawley rats; assay: Diet-induced hypercholesterolemia in wild type Sprague Dawley rats (total, HDL, LDL cholesterol); format: in vivo, rat; conditions: Sprague Dawley rats on atherogenic diet, oral once daily, day 5, FIGS. 5a–c
Text: Experimental Procedure: Six week-old male Sprague Dawley rats (obtained from Harlan of San Diego, Calif.) were housed in a fixed 12—12-hr artificial light-dark cycle, and maintained on a high cholesterol atherogenic diet (Paigen's Diet, obtained from Research Diet Inc. of New Brounswick, N.J.) was provided ad libitum. Animals were allowed six days to acclimate in this experimental environment prior to the initiation of the study.
Prior to initiation of treatment, the animals were bled from the tail vein (100–200 μL of whole blood) and serum levels of cholesterol were measured in duplicate (Cholesterol Infinity kits; Sigma, St. Louis, Mo.). Based on these initial measures, animals were sorted into groups with approximately the same average total cholesterol levels. Once sorted, the animals were housed three per cage and maintained on Paigen's diet ad libitum. All compounds to be tested were suspended in sesame oil and administered in a final volume of 3 ml/kg. Drug is administered by oral gavage once daily at the beginning of the artificial light cycle. To obtain a base line for lipid measurement, a control group maintained on standart rodent diet is included (lean control).
Treatment Group A (n=6/group): (See Results in FIG. 5a) • 1) Lean control (Sesame Oil) • 2) Control • 3) Compound 2 (0.3 mg/kg) • 4) Compound 2 (1 mg/kg) • 5) Compound 2 (3 mg/kg)
Treatment Group B (n=6/group): (See Results in FIG. 5b) • 1) Lean control (Sesame Oil) • 2) Control • 3) Compound 6 (3 mg/kg)
Treatment Group C (n=6/group): (See Results in FIG. 5c) • 1) Lean control (10% HPβCD) • 2) Control • 3) Compound 25 (1 mg/kg) • 4) Compound 25 (3 mg/kg) • 5) Compound 25 (10 mg/kg) • 6) Compound 25 (15 mg/kg) • The compounds were dissolved in a 10% hydroxy propyl beta cyclodextrin solution, and administered to animals in a volume of 10 ml/kg/dose.
To monitor the effect of the tested compounds, animals were bled from the tail vein at the end of the dark cycle on days 0 (for sorting) and day 5 of the treatment period. Fed serum cholesterol levels were measured in duplicate. The blood is kept at room temperature to allow coagulation, after which the serum is separated and assayed for total cholesterol (Infinity reagent, Sigma), HDL cholesterol (using HDL precipitating reagent and infinity reagent, Sigma) and LDL cholesterol (EZLDL kit, Sigma). As shown in FIGS. 5a–c, all compounds tested show significant reduction in total and LDL cholesterol levels and a significant increase in HDL cholesterol levels compared to high fat fed control animals.

[4] = Oral bioavailability, single dose pharmacokinetic study in rats (plasma concentration by HPLC); format: in vivo, Sprague Dawley rats; conditions: rat
Text: Oral bioavailability is an important pharmaceutical characteristic for a compound to advance through drug development. A basic assessment of the oral bioavailability of a compound can be done in a single dose pharmacokinetic study in wild type rats.
Six to eight week-old male Sprague Dawley rats (Harlan) were housed in a fixed 12–12- hr artificial light-dark cycle, and maintained on a standard rodent diet provided ad libitum. Animals were allowed two days to acclimate in this experimental environment prior to the initiation of the study. Compounds 24 and 25 were dissolved in a 10% hydroxypropyl beta cyclodextrin solution and administered by oral gavage in a final dose of 10 mg/kg in a volume of 5 ml/kg. Treatment groups were divided as follows:
Treatment groups(n=3/group): • 1) Compound 24 (10 mg/kg) • 2) Compound 25 (10 mg/kg)
Each animal received a single treatment, after which, the animal was bled from the tail vein at the following time points: 0.5, 1, 2, 4, 6, 9, 12, and 26 hours after treatment. To measure the concentration of each compound in plasma, blood samples were collected in heparin-coated tubes, and the plasma was isolated and analyzed by HPLC.

[5] = test system: db/db mutant mice; assay: Oral treatment of type 2 diabetes in db/db mutant mice (serum glucose, triglyceride); format: in vivo, mouse
Protocol: Experimental Procedure: Seven week-old female db/db mutant mice (C57BL/KsJ-db +/+m; Jackson Labs, Bar Harbour, Me.) were housed in a fixed 12—12-hr artificial light-dark cycle, and maintained on a standard high fat diet (containing at least 11% crude fat) provided ad libitum (Teklad S-2335). Animals were allowed two days to acclimate in this experimental environment prior to the initiation of the study. Prior to initiation of treatment, the animals were bled from the tail vein (100–200 μL of whole blood) and serum levels of glucose and triglycerides were measured in duplicate (Trinder kits; Sigma, St. Louis, Mo.). Based on these initial measures, animals were sorted into treatment groups with approximately the same average serum glucose levels. Once sorted, the animals were housed five per cage and provided high fat rodent diet ad libitum.
Treatment Groups (n=5/group): • 1) db/db control (CMC) • 2) Compound 25 (0.1 mg/kg, in CMC) • 3) Compound 25 (0.3 mg/kg, in CMC) • 4) Compound 25 (1 mg/kg, in CMC)
Compound 25 was suspended in a solution of carboxymethyl cellulose (CMC; 1% carboxy methyl cellulose in H2O, with 10% polyethelene glycol 400), and administered to animals in a volume of 5 ml/kg/dose. The drug is administered by oral gavage once daily at the beginning of the artificial light cycle.
To monitor the effect of the tested compounds, animals were bled following a three-hour fast at the end of the dark cycle on days 0, 7, 14 of the treatment period. Fasting serum glucose and triglyceride levels were measured in duplicate. The blood is kept at room temperature to allow coagulation, after which the serum is separated and. assayed for glucose and triglyceride levels.

[6] = KKA^y mice, oral once daily, vs control mice, FIGS. 2a–d
[7] = KKA^y mice, 1, 3, 10 mg/kg oral in 10% HPβCD, following 4 weeks of treatment, FIG. 2e
[8] = oral once daily in CMC, compared to control animals, FIG. 3

In the case of Cc1cc2c(cc1-c1cc(/C=C3\SC(=O)NC3=O)ccc1OC(F)(F)F)N(C)C(=O)CC2(C)C [Compound 1, 5-[3-(1,4,4,6-Tetramethyl-2-oxo-1,2,3,4-tetrahydro-quinolin-7-yl)-4-trifluoromethoxy-benzylidene]-thiazolidine-2,4-dione], the serum glucose level [1, 6] is reported as “decrease” and the serum triglyceride level [1, 6] is reported as “decrease”.
With CCN1C(=O)CC(C)(C)c2cc(C)c(-c3cc(/C=C4\SC(=O)NC4=O)ccc3Cl)cc21 [Compound 6, 5-[3-(1-Ethyl-4,4,6-trimethyl-2-oxo-1,2,3,4-tetrahydro-quinolin-7-yl)-4-chloro-benzylidene]-thiazolidine-2,4-dione] the “growth / progression of mammary (breast cancer) tumors” value (“growth / progression of mammary” for short) [2] was “slow or cause regression”, the HDL cholesterol [3] was “increasing” and the LDL cholesterol [3] was “decrease”. For the same compound, the total cholesterol [3] was “decrease”.
For Cc1cc2c(cc1-c1cc(/C=C3\SC(=O)NC3=O)ccc1OC(F)(F)F)N(C(C)C)C(=O)CC2(C)C [Compound 11, 5-[3-(1-Isopropyl-4,4,6-trimethyl-2-oxo-1,2,3,4-tetrahydro-quinolin-7-yl)-4-trifluoromethoxy-benzylidene]-thiazolidine-2,4-dione], the serum glucose level [1, 6] was “decrease”, the serum triglyceride level [1, 6] was “decrease” and the regression of tumors [2] was “without causing any regressions”. For the same compound, the “number of static tumors” value [2] was “only increase the number of static tumors” and the “growth / progression of mammary” value [2] was “slow or cause regression”.
With CCN1C(=O)CC(C)(C)c2cc(C)c(-c3c(F)c(/C=C4\SC(=O)NC4=O)cc(F)c3OC)cc21 [Compound 13, 5-[3-(1-Ethyl-4,4,6-trimethyl-2-oxo-1,2,3,4-tetrahydro-quinolin-7-yl)-2,5-difluoro-4-methoxy-benzylidene]-thiazolidine-2,4-dione] the serum glucose level [1, 6] was “decrease”, the serum triglyceride level [1, 6] was “decrease” and the regression of tumors [2] was “without causing any regressions”. The “number of static tumors” value [2] was “only increase the number of static tumors” and the “growth / progression of mammary” value [2] was “slow or cause regression”.
With CCN1C(=O)CC(C)(C)c2cc(C)c(-c3cc(/C=C4\SC(=O)NC4=O)ccc3OC(F)(F)F)cc21 [Compound 25, 5-[3-(1-Ethyl-4,4,6-trimethyl-2-oxo-1,2,3,4-tetrahydro-quinolin-7-yl)-4-trifluoromethoxy-benzylidene]-thiazolidine-2,4-dione, TRIS Salt] the serum glucose level [1, 7] was “unexpectedly strong and simultaneous reduction”, the “serum total cholesterol level” value [1, 7] was “unexpectedly strong and simultaneous reduction” and the serum triglyceride level [1, 7] was “unexpectedly strong and simultaneous reduction”. The “dose causing regression of tumors (as low as)” value [2] was at least 20 mg/kg, the regression of tumors [2] was “caused the regression of tumors” and the “growth / progression of mammary” value [2] was “slow or cause regression”. The “concentration of compound in plasma” value ([4]; single oral dose 10 mg/kg in 10% HPβCD, 0.5–26 hours, FIG. 7) was “significantly higher concentration”, the oral bioavailability ([4]; single oral dose 10 mg/kg, Compound 25 over Compound 24) was “improved bioavailability” and the “dose ameliorating the symptoms of diabetes (as low as)” value ([5]; once daily oral) was at least 0.3 mg/kg. For the same compound, the fasting serum glucose [5, 8] was “reduced” and the fasting serum triglyceride [5, 8] was “reduced”.
